Laboratory results reported in publication PMC2826131 (Journal of the American Chemical Society, 2010).

Legend:
[1] = molecular target: rat nNOS (Rattus norvegicus, UniProt P29476); assay: NOS hemoglobin capture assay, Ki from IC50; type: biochemical; settings: 10 μM L-arginine, calculated from IC50, mean ± SD of 2-3 experiments
[2] = molecular target: ferrous nNOS heme domain (Rattus norvegicus, UniProt P29476); assay: Ferrous difference spectrometry; type: binding; settings: type of difference spectrum toward ferrous (dithionite-reduced) nNOS heme domain
[3] = molecular target: ferric nNOS heme domain (Rattus norvegicus, UniProt P29476); assay: Ferric difference spectrometry; type: binding; settings: type of difference spectrum toward ferric nNOS heme domain
Sequence of ferric nNOS heme domain (P29476 297-718 limits assumed): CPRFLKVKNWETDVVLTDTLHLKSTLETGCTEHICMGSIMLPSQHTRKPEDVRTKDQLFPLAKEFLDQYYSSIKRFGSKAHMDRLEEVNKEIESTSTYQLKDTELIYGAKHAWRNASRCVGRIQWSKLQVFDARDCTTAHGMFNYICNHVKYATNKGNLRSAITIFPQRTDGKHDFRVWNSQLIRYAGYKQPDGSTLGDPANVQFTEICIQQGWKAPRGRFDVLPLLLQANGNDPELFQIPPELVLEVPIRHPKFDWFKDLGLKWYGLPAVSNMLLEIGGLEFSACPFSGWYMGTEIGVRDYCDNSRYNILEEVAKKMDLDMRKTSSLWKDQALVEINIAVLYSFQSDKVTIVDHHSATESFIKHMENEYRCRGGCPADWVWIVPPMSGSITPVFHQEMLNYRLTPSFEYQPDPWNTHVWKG

Sequence of ferrous nNOS heme domain (P29476 297-718 limits assumed): as above
Sequence of rat nNOS (P29476 whole entry, the tested form may be a part): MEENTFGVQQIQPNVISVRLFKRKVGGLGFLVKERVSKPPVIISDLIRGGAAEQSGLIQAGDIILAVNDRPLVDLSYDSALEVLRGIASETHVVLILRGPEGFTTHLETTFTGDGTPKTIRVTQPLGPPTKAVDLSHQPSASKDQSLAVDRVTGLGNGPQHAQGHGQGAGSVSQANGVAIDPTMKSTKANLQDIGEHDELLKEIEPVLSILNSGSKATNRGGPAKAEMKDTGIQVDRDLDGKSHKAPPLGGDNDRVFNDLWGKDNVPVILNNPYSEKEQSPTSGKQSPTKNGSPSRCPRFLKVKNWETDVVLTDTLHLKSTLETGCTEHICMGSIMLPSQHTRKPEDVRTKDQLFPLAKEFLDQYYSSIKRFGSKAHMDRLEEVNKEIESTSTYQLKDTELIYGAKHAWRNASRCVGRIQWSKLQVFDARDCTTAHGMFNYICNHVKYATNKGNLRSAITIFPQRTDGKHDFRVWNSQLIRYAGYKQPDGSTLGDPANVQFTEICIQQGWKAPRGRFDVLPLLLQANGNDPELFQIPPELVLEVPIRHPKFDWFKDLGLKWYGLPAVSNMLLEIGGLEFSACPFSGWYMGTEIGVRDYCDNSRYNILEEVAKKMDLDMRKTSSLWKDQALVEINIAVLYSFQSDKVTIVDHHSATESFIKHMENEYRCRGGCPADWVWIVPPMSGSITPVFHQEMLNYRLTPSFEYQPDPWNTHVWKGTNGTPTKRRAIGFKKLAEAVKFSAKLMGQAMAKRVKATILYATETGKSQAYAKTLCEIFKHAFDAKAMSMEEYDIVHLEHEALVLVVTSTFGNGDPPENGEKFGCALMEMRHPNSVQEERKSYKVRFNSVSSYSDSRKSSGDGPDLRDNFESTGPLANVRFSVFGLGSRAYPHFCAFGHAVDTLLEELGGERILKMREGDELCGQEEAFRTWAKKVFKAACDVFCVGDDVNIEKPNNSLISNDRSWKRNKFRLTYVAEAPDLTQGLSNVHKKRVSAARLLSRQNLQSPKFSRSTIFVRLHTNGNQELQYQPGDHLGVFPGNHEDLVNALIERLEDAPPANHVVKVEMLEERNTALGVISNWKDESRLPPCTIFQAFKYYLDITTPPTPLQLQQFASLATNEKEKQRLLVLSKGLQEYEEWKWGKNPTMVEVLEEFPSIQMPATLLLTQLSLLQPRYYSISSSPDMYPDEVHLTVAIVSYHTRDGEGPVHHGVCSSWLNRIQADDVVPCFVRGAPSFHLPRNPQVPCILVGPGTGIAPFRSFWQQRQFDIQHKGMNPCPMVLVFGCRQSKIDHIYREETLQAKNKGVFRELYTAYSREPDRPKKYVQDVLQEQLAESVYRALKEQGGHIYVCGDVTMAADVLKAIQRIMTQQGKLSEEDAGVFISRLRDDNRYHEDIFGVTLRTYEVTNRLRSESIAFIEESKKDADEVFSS

Row | Structure (SMILES) | Ki [1] | Fe^2+ type [2] | Fe^3+ type [3]
1 | c1c[nH]cn1 [Imidazole] | 29.7 ± 0.8 µM | I | –
2 | NC(=NCCC[C@H](N)C(=O)O)N[N+](=O)[O-] [L-Nitroarginine] | – | I | I
